Numbers after ± are expanded uncertainties.
Legend:
[1] = Crystal; DTA
[2] = Molar enthalpy of transition or fusion; details: Crystal; DSC

O=P(CCCO)(CCCO)CCCO [tris(3-hydroxypropyl)phosphine oxide]
Normal melting temperature [1]: 114.61 ± 0.63 °C | Molar enthalpy of transition or fusion [2]: 8.18 ± 0.177 kcal/mol

From the NIST ThermoML archive (doi:10.1021/je301029j)
